pKd: −log10 of the molar value.
Molecular target: Cyclin-dependent kinase 6 (CDK6) (Homo sapiens, UniProt Q00534)
Experiment: biochemical

Sequence of Cyclin-dependent kinase 6 (CDK6) (Q00534 whole entry): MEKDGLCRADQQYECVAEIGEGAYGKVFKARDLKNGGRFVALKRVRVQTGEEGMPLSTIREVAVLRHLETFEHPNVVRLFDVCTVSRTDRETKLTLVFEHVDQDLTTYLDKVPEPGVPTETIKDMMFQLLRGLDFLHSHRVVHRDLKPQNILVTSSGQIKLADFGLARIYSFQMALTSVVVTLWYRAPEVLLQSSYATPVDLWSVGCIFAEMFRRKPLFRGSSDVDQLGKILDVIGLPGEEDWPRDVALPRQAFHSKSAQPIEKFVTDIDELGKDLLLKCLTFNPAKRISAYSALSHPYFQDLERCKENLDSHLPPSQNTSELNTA

- pKd: 5.26
Structure (SMILES): Cc1cc(F)c(C(=O)Nc2cccc(-c3nncn3C(C)C)n2)cc1-n1cnc(C2CC2)c1 [selonsertib]
